Measured values: patent US4518611A, “2-Furylbutyrolactone modulation of the immune system in mammals” (priority 1983, dated 1985)
“And” between values parts separate entries of the source, which are not always exact repeats. Equal values may be shown once.

System: L-1210 leukemia cells
Test: Treatment of L-1210 leukemia in BDF1 mice (T/C ratios)
Assay type: in vivo, mouse
Text: Mice of the BDF1 strain are given in i.p. inoculation of 10^6 L-1210 leukemia cells on day 0. Twenty-four hours later, groups of 7 mice each are started on a nine day treatment regimen of various doses of the compounds of this invention. The experiment is continued according to the guidelines provided under the National Cancer Institute protocol for screening new anti-cancer agents and T/C ratios (median or mean survival time of treated groups over median or mean survival time of controls) are calculated. A T/C value ≥1.25 (or 125%) is considered significant anticancer activity.
(§1) Mice of the BDF1 strain, inoculated with L-1210 leukemia cells, are treated for seven days with either 25, 50, 100, 200 or 400 mg/kg of Cpd. 1 or just buffer. The National Cancer Institute protocol for screening new anti-cancer agents is followed and T/C ratios are calculated.
as §1, with “either 100” for “either 25, 50, 100, 200 or 400”, “Cpd. 1, 20 mg/kg of 5-flourouracil (5-FU), a known anti-cancer agent,” for “Cpd. 1”

## Cc1ccc(C2(O)C(=O)OC3C(O)COC32O)o1.Cc1ccc(C2(O)C(=O)OC3C(O)COC32O)o1.O=C1CCC(=O)O1 (centres unmarked) [Cpd. 1, 2-furylbutyrolactone:succinic anhydride]
25 mg/kg, seven days
  Median Survival Time: 20 days
  T/C: 1.00
50 mg/kg, seven days
  Median Survival Time: 21 days
  T/C: 1.05
100 mg/kg, seven days
  Median Survival Time: 30 days
  T/C: 1.50 and 1.40
100 mg/kg, seven days (Table 25)
  Median Survival Time: 28
200 mg/kg, seven days
  Median Survival Time: 30 days
  T/C: 1.50
400 mg/kg, seven days
  Median Survival Time: 25 days
  T/C: 1.25
